Laboratory results reported in article PMC10216478, “Development of a Non-Peptide Angiotensin II Type 1 Receptor Ligand by Structural Modification of Olmesartan as a Biased Agonist” (Biomedicines, 2023).

What follows are molecules tested against T1, AT1 N295A receptor (Rattus norvegicus, UniProt P25095, N295A) (assay: Competition binding study, 125I-[Sar1,Ile8]Ang II, AT1 N295A receptor). Settings: competition with 125I-[Sar1,Ile8]Ang II, n = 3, mean ± standard error, read-out: Binding affinity (Kd).
T1 construct: expressed in transfected cells; host or cells: COS7
T1 sequence (P25095 1-359 N295A): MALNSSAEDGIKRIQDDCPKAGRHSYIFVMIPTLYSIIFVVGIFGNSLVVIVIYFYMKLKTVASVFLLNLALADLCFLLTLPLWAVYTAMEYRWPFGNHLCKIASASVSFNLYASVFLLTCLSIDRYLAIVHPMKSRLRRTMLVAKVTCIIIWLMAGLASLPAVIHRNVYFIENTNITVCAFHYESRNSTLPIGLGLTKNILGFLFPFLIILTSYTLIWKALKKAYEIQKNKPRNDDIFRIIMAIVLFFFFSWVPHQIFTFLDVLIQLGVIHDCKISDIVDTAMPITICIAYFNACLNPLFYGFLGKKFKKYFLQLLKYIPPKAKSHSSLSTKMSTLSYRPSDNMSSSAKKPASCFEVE
Source text: We mutated four amino acids in transmembrane (TM) III, VI, and VII in the AT1 receptor (L112A, Q257A, Y292A, and N295A receptors). We determined the mutation sites of the AT1 receptor according to ARB, which produced olmesartan derivatives with different interactions and functions toward the AT1 receptor, as previously reported by Zhang et al., since the additional 4-hydroxybenzyl groups of R781253 and R794847 were predicted to extend to a sub-pocket on the bottom of the AT1 receptor ligand-binding pocket consisting of Leu^112 and Gln^257. In addition, since the biased ligand TRV027 induced changes near the NPxxY motif in TM domain 7 that are related to receptor activation, Tyr^292 and Asn^295 in the AT1 receptor were mutated.
The synthetic rat AT1 receptor gene, which was cloned in the shuttle expression vector pMT-2, was used for expression and mutagenesis, as described previously. COS7 cells (No. CRL-1651, ATCC, Manassas, VA, USA) were cultured in 10% fetal bovine serum (FBS) and penicillin- and streptomycin-supplemented Dulbecco’s modified Eagle’s essential medium (PS-DMEM) in 5% CO2 at 37 °C. In the experiments, cells were grown without a cell-growth supplement. To express the AT1 receptor protein, 10 µg of purified plasmid DNA per 10^7 cells was used in the transfection. Wild-type and mutated AT1 receptors were transiently transfected into cells using Lipofectamine 2000 liposomal reagent (Roche Applied Science, Penzberg, Germany). Cells were plated and grown and were 70–90% confluent at the time of transfection. We incubated plasmid DNA (10 µg)–lipid (10 µL) complexes for 5 min at room temperature and added and incubated the complexes with cells for 24 h. We then analyzed the parameters in transfected cells. Cell viability was >95% according to trypan blue exclusion analysis in the control experiments. Transfected cells that had been cultured for 48–72 h were harvested. Cell membranes were prepared using the nitrogen Parr bomb disruption or freeze–thaw methods.
The Kd (nM) values of receptor binding were determined with ^125I-[Sar^1, Ile^8]AngII-binding experiments under equilibrium conditions. Binding kinetics were determined following the methods described in the literature. We carried out binding by using ^125I-[Sar^1, Ile^8] AngII (2200 Ci/mmol) and an increasing concentration (10^−11–10^−5 M) of each unlabeled compound. Nonspecific binding of ^125I-[Sar^1, Ile^8] Ang II was determined in the presence of a high concentration (10^−6 M) of unlabeled [Sar^1, Ile^8]. Next, the incubation mixture was separated by vacuum filtration through Whatman GF/C glass filters (Disposable Filter Funnels Grade GF/C, GE Healthcare), and presoaked with 0.1% polyethylenimine. The filter was washed with 3 mL of ice-cold stop buffer (25 mM Tris–HCl, pH 7.4, 1 mM MgCl2). The radioactivity trapped on the filters was quantified using an automatic γ-counter. The percentage (%) of specific binding of ^125I-[Sar^1, Ile^8]Ang II was calculated using the following formula: 100 × (% total binding of ^125I-[Sar^1, Ile^8]Ang II—nonspecific binding of ^125I-[Sar^1, Ile^8]Ang II)/(% total binding of ^125I-[Sar^1, Ile^8]Ang II).
In the case of `CCCc1nc(C(C)(C)O)c(C(N)=O)n1Cc1ccc(-c2cc(Cc3ccc(O)cc3)ccc2-c2nnn[nH]2)cc1` [R794847], the Kd is reported as > 10000 nM. In the case of `CCCc1nc(C(C)(C)O)c(C(=O)O)n1Cc1ccc(-c2cc(Cc3ccc(O)cc3)ccc2-c2nnn[nH]2)cc1` [R781253], the Kd is reported as > 10000 nM. Molecule `CCCc1nc(C(C)(C)O)c(C(N)=O)n1Cc1ccc(-c2ccccc2-c2nnn[nH]2)cc1` [R239470] has a Kd of 69 ± 8 nM. For `CCCc1nc(C(C)(C)O)c(C(=O)O)n1Cc1ccc(-c2ccccc2-c2nnn[nH]2)cc1` [Olmesartan, olmesartan], the Kd was 334 ± 105 nM.
